Experimental data: the NIST ThermoML archive (doi:10.1007/s10765-010-0725-9)
Values joined by “and” are separate entries in the source; they are usually repeats but may differ in a detail not shown here. Identical values can stand only once.

Columns and labels:
[1] = wn = mass fraction of the nth substance listed; conditions: Pendant drop shape
[2] = Pendant drop shape

[Ca+2].[Cl-].[Cl-] [calcium chloride] + O
surface tension liquid-gas [mN/m], [1]
Conditions | 303.15 K | 313.15 K | 323.15 K | 333.15 K
w1 = 0.04 | 72.74 | 70.84 | 69.62 | 67.62
w1 = 0.1 | 74.59 | 72.56 | 70.38 | 68.56
w1 = 0.14 | 76.08 | 73.65 | 71.52 | 70.63
w1 = 0.18 | 77.53 | 74.89 | 73.25 | 71.87

[Cl-].[K+] [potassium chloride] + O
surface tension liquid-gas [mN/m], [1]
Conditions | 303.15 K | 313.15 K | 323.15 K | 333.15 K
w1 = 0.1 | 71.58 | 69.86 | 67.57 | 66.39
w1 = 0.14 | 72.12 | 70.64 | 69.15 | 66.16
w1 = 0.18 | 76.78 | 75.23 | 74.65 | 71.44

[Cl-].[Na+] [sodium chloride] + O
surface tension liquid-gas [mN/m], [1]
Conditions | 303.15 K | 313.15 K | 323.15 K | 333.15 K
w1 = 0.04 | 71.44 | 70.66 | 68.25 | 67.31
w1 = 0.1 | 73.42 | 71.81 | 70.97 | 69.74
w1 = 0.14 | 76.09 | 74.6 | 72.47 | 71.83
w1 = 0.18 | 77.04 | 74.73 | 73.38 | 71.44

O=S(=O)([O-])[O-].[Na+].[Na+] [sodium sulfate] + O
surface tension liquid-gas [mN/m], [1]
Conditions | 303.15 K | 313.15 K | 323.15 K | 333.15 K
w1 = 0.04 | 71.53 | 70.7 | 68.8 | 67.27
w1 = 0.1 | 73.56 | 71.88 | 70.5 | 69.11
w1 = 0.14 | 74.02 | 72.82 | 71.65 | 69.93
w1 = 0.18 | 76.28 | 74.97 | 73.22 | 71.4

O [water]
[2]
Conditions | surface tension liquid-gas
303.15 K | 71.54 mN/m and 72.12 mN/m and 71.58 mN/m
313.15 K | 70.64 mN/m and 68.96 mN/m and 69.86 mN/m
323.15 K | 69.15 mN/m and 67.83 mN/m and 67.57 mN/m
333.15 K | 66.16 mN/m and 66.39 mN/m
343.15 K | 65.39 mN/m and 65.8 mN/m and 64.73 mN/m
